Strand notation (5' to 3'): a small letter for the sugar, then the base; units joined by * are phosphorothioate-linked, units joined directly phosphodiester-linked; [ ] holds rarer units or linkages, { } end groups; capitals alone tell only the bases. k = constrained ethyl (cEt); [5mC] = 5-methylcytosine; d = 2'-deoxy (DNA)
Test system: Yap1 mRNA
Assay: Dose-dependent inhibition of human Yap1 in A-431 cells (Example 6, 5,000 cells per well, RTS4814)
Type: cell-based
Conditions: for % UTC 148 nM / % UTC 444 nM / % UTC 1333 nM / % UTC 4000 nM: approximately 48 hours; for Yap1 mRNA, % UTC: 48 hours
Description: Modified oligonucleotides described in the studies above were tested at various doses in A-431 cells. Cultured A-431 cells at a density of 5,000 cells per well were treated using free uptake with modified oligonucleotides diluted to concentrations described in the tables below. After approximately 48 hours, Yap1 mRNA levels were measured as previously described using the Human Yap1 primer-probe set RTS4814. Yap1 mRNA levels were normalized to total RNA content, as measured by RIBOGREEN®. Results are presented in the tables below as percent control of the amount of Yap1 mRNA relative to untreated control cells (% UTC). IC50s were calculated using a linear regression on a log/linear plot of the data in excel.

[1] = Table 53, A-431 cells, Yap1 mRNA, linear regression on a log/linear plot
[2] = Table 53, A-431 cells, free uptake, 148 nM, RTS4814
[3] = Table 53, A-431 cells, free uptake, 444 nM, RTS4814
[4] = Table 53, A-431 cells, free uptake, 1333 nM, RTS4814
[5] = Table 53, A-431 cells, free uptake, 4000 nM, RTS4814
[6] = Table 54, A-431 cells, Yap1 mRNA, linear regression on a log/linear plot
[7] = Table 54, A-431 cells, free uptake, 148 nM, RTS4814
[8] = Table 54, A-431 cells, free uptake, 444 nM, RTS4814
[9] = Table 54, A-431 cells, free uptake, 1333 nM, RTS4814
[10] = Table 54, A-431 cells, free uptake, 4000 nM, RTS4814
[11] = Table 55, 148 nM, free uptake, A-431 cells 5,000 cells per well, RTS4814
[12] = Table 55, 444 nM, free uptake, A-431 cells 5,000 cells per well, RTS4814
[13] = Table 55, 1333 nM, free uptake, A-431 cells 5,000 cells per well, RTS4814
[14] = Table 55, 4000 nM, free uptake, A-431 cells 5,000 cells per well, RTS4814
[15] = Table 55, A-431 cells 5,000 cells per well, free uptake, RTS4814

Substance	IC50 [1]	% UTC 148 nM [2]	% UTC 444 nM [3]	% UTC 1333 nM [4]	% UTC 4000 nM [5]	Yap1 mRNA, % UTC [11]	Yap1 mRNA, % UTC [12]	Yap1 mRNA, % UTC [13]	Yap1 mRNA, % UTC [14]	IC50 [15]	other results
715501 (kA*kA*kA*dA*dG*d[5mC]*d[5mC]*dT*dT*dA*dG*dA*dG*kT*k[5mC]*kA; antisense) [compound 715501]	> 4 µM	82 % UTC	82 % UTC	68 % UTC	56 % UTC	–	–	–	–	–	–
715414 (kA*kA*k[5mC]*dA*dT*dG*d[5mC]*dT*dG*dT*dG*dG*dA*kG*kT*k[5mC]; antisense) [compound 715414]	–	–	–	–	–	–	–	–	–	–	IC50 [6]: > 4 µM; % UTC 148 nM [7]: 91 % UTC; % UTC 444 nM [8]: 91 % UTC; % UTC 1333 nM [9]: 102 % UTC; % UTC 4000 nM [10]: 67 % UTC
715577 (kG*k[5mC]*kA*dT*dT*d[5mC]*dA*d[5mC]*dA*dG*dA*dG*dT*kT*kA*kA; antisense) [compound 715577]	> 4 µM	87 % UTC	76 % UTC	73 % UTC	45 % UTC	–	–	–	–	–	–
715433 (kT*kG*kT*dT*d[5mC]*dT*dT*dA*dT*dG*dG*dT*dT*kT*kA*kT; antisense) [compound 715433]	2.5 µM	87 % UTC	72 % UTC	65 % UTC	40 % UTC	–	–	–	–	–	–
716493 (antisense kA*k[5mC]*kA*dT*dT*dG*dA*dA*dA*dG*dA*d[5mC]*d[5mC]*k[5mC]*kT*kT) [compound 716493]	–	–	–	–	–	–	–	–	–	–	IC50 [6]: > 4 µM; % UTC 148 nM [7]: 95 % UTC; % UTC 444 nM [8]: 97 % UTC; % UTC 1333 nM [9]: 86 % UTC; % UTC 4000 nM [10]: 72 % UTC
715435 (kG*kG*kT*d[5mC]*dT*dT*dG*dT*dT*d[5mC]*dT*dT*dA*kT*kG*kG; antisense) [compound 715435]	–	–	–	–	–	–	–	–	–	–	IC50 [6]: 3.4 µM; % UTC 148 nM [7]: 80 % UTC; % UTC 444 nM [8]: 67 % UTC; % UTC 1333 nM [9]: 61 % UTC; % UTC 4000 nM [10]: 48 % UTC
716407 (antisense k[5mC]*kT*kT*dA*dG*dT*d[5mC]*d[5mC]*dA*d[5mC]*dT*dG*dT*k[5mC]*kT*kG) [compound 716407]	–	–	–	–	–	84 % UTC	75 % UTC	72 % UTC	39 % UTC	3 µM	–
715490 (k[5mC]*k[5mC]*kA*dA*d[5mC]*dT*dA*dT*dT*dA*d[5mC]*dT*dT*k[5mC]*kA*kT; antisense) [compound 715490]	4.1 µM	98 % UTC	89 % UTC	76 % UTC	43 % UTC	–	–	–	–	–	–
715500 (kA*kA*kG*d[5mC]*d[5mC]*dT*dT*dA*dG*dA*dG*dT*d[5mC]*kA*kA*kT; antisense) [compound 715500]	3.6 µM	97 % UTC	72 % UTC	67 % UTC	48 % UTC	–	–	–	–	–	–
716554 (antisense kA*kT*kG*d[5mC]*dT*dT*dG*d[5mC]*dG*dA*dG*dG*dA*kT*kA*kA) [compound 716554]	–	–	–	–	–	87 % UTC	90 % UTC	76 % UTC	50 % UTC	> 4 µM	–
716543 (antisense kT*kA*kT*dT*dT*dG*dT*dA*dG*d[5mC]*dA*dA*dA*kG*kT*k[5mC]) [compound 716543]	–	–	–	–	–	62 % UTC	99 % UTC	79 % UTC	64 % UTC	> 4 µM	–
715479 (kA*kA*kA*d[5mC]*d[5mC]*dA*dT*dT*dA*dT*dT*dA*d[5mC]*kT*k[5mC]*k[5mC]; antisense) [compound 715479]	> 4 µM	98 % UTC	80 % UTC	77 % UTC	64 % UTC	–	–	–	–	–	–
716524 (antisense kA*k[5mC]*kT*dG*dA*dG*dG*dT*dA*dT*dA*dA*d[5mC]*kT*kG*kG) [compound 716524]	–	–	–	–	–	103 % UTC	92 % UTC	96 % UTC	62 % UTC	> 4 µM	–
716500 (antisense kA*kA*k[5mC]*dT*dT*d[5mC]*dT*dT*dA*d[5mC]*dT*dT*d[5mC]*k[5mC]*kA*kA) [compound 716500]	–	–	–	–	–	88 % UTC	96 % UTC	79 % UTC	46 % UTC	> 4 µM	–
716548 (antisense kG*kA*kG*dT*dT*dT*d[5mC]*dA*dA*d[5mC]*dA*d[5mC]*dT*kG*kA*kT) [compound 716548]	–	–	–	–	–	99 % UTC	89 % UTC	79 % UTC	67 % UTC	> 4 µM	–
715434 (kT*k[5mC]*kT*dT*dG*dT*dT*d[5mC]*dT*dT*dA*dT*dG*kG*kT*kT; antisense) [compound 715434]	2.8 µM	84 % UTC	69 % UTC	64 % UTC	43 % UTC	–	–	–	–	–	–
716501 (antisense kG*k[5mC]*kA*d[5mC]*dT*dG*dA*dA*dA*dG*dT*dA*d[5mC]*kT*kT*kA) [compound 716501]	–	–	–	–	–	91 % UTC	69 % UTC	66 % UTC	55 % UTC	> 4 µM	–
716469 (antisense kG*kT*kT*dT*dG*d[5mC]*dT*d[5mC]*d[5mC]*dT*dT*dT*d[5mC]*k[5mC]*kA*kA) [compound 716469]	–	–	–	–	–	–	–	–	–	–	IC50 [6]: > 4 µM; % UTC 148 nM [7]: 71 % UTC; % UTC 444 nM [8]: 78 % UTC; % UTC 1333 nM [9]: 89 % UTC; % UTC 4000 nM [10]: 39 % UTC
715486 (kT*kA*k[5mC]*dT*dT*d[5mC]*dA*dT*dA*dG*d[5mC]*dT*dT*kA*kT*kA; antisense) [compound 715486]	> 4 µM	93 % UTC	89 % UTC	81 % UTC	56 % UTC	–	–	–	–	–	–
716376 (k[5mC]*kG*kA*dA*dG*dA*dT*dG*d[5mC]*dT*dG*dA*dG*k[5mC]*kT*kG; antisense) [compound 716376]	–	–	–	–	–	–	–	–	–	–	IC50 [6]: > 4 µM; % UTC 148 nM [7]: 103 % UTC; % UTC 444 nM [8]: 94 % UTC; % UTC 1333 nM [9]: 79 % UTC; % UTC 4000 nM [10]: 50 % UTC
716505 (antisense kG*kA*kT*dT*dT*dA*dA*dT*d[5mC]*dT*dT*dT*d[5mC]*kT*kG*k[5mC]) [compound 716505]	–	–	–	–	–	–	–	–	–	–	IC50 [6]: > 4 µM; % UTC 148 nM [7]: 83 % UTC; % UTC 444 nM [8]: 103 % UTC; % UTC 1333 nM [9]: 82 % UTC; % UTC 4000 nM [10]: 66 % UTC
716489 (antisense kA*kG*kT*dT*dA*dA*dT*dT*d[5mC]*dA*dT*dG*d[5mC]*kT*k[5mC]*kG) [compound 716489]	–	–	–	–	–	84 % UTC	83 % UTC	69 % UTC	61 % UTC	> 4 µM	–
716438 (antisense kA*kT*kT*dT*dT*dT*dG*dG*d[5mC]*dT*dT*dG*dT*k[5mC]*kA*kG) [compound 716438]	–	–	–	–	–	93 % UTC	75 % UTC	62 % UTC	49 % UTC	3.4 µM	–

From patent US11214803B2, “Modulators of YAP1 expression” (Ionis Pharmaceuticals, Inc., priority 2019, dated 2022)
